Columns and labels:
[1] = Example 2.2 glycolipid facilitated chemical precipitation: lead; conditions: for Pb^2+ maximum removal: precipitation without further treatment, maximum over molar ratios
Experimental: (§1) Nine different structural variants were selected to examine the effect of the headgroup and number and length of the hydrophobic tail(s) on glycolipids as a chemical precipitant (Table 6). These solutions were made in advance and stored at 4° C. for up to one month and brought to room temperature (˜25° C.) before each experiment.
(§2) Each metal (Pb^2+, La^3+, and Mg^2+) was evaluated separately with each of the nine glycolipids. […] The reactions were mixed in the order of nanopure water (≥18 MΩ-cm), glycolipid solution, then metal solution. The metal and glycolipid solutions were continuously stirred as they were aliquoted into the reaction tubes. All experiments were performed in triplicate.
(§3) The reaction tubes were rotated overnight (16 to 24 h) and then three samples were collected from each tube to measure metal removal from solution: (1) no further treatment; (2) an additional filtration step; and (3) an additional centrifugation step. Briefly, for the glycolipid adsorption treatment samples all tubes were vortexed for approximately 5 sec immediately before sampling to ensure that non-adsorbed glycolipid-metal complexes were mixed into the solution column. After mixing, 0.1 ml of the reaction solution was aliquoted into a dilution tube of 2% trace metal grade nitric acid for analysis. This sample measures the loss of metal due to the formation of hydrophobic scums or adsorbed complexes not attributable to the subsequent filtration or centrifugation treatments.
Samples for the filtration treatment were vortexed for 5 sec, then a 0.6 ml aliquot was collected with a 1 ml syringe. A GHP acrodisc disk filter (hydrophilic polypropylene membrane, 0.45 µm pore size, 25 mm disc diameter) from Pall Life Sciences (Port Washington, New York) or PTFE disk filters (hydrophobic polytetrafluoroethylene membrane, 0.45 μm pore size, 25 mm disc diameter) from Fisher Scientific (Waltham, MA) was then placed onto the end of the syringe and approximately 0.1 ml of filtrate was collected into a dilution tube for analysis. The centrifuge sample was collected by centrifuging the remaining reaction solution at 10,000 RCF for 15 min. Approximately 0.1 ml of the supernatant was aliquoted into a dilution tube for analysis. Following collection, the metal content in all samples was analyzed at the Arizona Laboratory for Emerging Contaminants (ALEC) at the University of Arizona using inductively coupled plasma mass spectrometry.
(§4) R was determined by comparing the solution metal concentration of the treatment sample (Cnt for the glycolipid with no further treatment sample, Cf for the glycolipid and filtration sample, and Cc for the glycolipid and centrifugation sample) to the solution metal concentration of a glycolipid-free control (Ci) that underwent the same handling and processing steps. The equations for these calculations are shown below: […]

[2] = Example 2.2 glycolipid facilitated chemical precipitation: lanthanum
Experimental: as §1, §2
as §3, with “This sample measures the loss of metal due to the formation of hydrophobic scums or adsorbed complexes not attributable to the subsequent filtration or centrifugation treatments.” left out
(§5) Samples for the filtration treatment were vortexed for 5 sec, then a 0.6 ml aliquot was collected with a 1 ml syringe. […] Following collection, the metal content in all samples was analyzed at the Arizona Laboratory for Emerging Contaminants (ALEC) at the University of Arizona using inductively coupled plasma mass spectrometry.
as §4, with “steps.” for “steps. The equations for these calculations are shown below:”

[3] = Example 2.2 glycolipid facilitated chemical precipitation: magnesium
Experimental: as §1, with “Surfactants: Each of the solutions were made by dissolving a single glycolipid (GlycoSurf Inc., Salt Lake City, >95% purity) in nanopure water (≥18 MΩ-cm) then adjusting the pH to 6.90±0.05 with HNO3 and NaOH. Nine” for “Nine”
Metals: Three metals were tested for binding with the glycolipids: lead as […] (Fisher Scientific, Waltham, MA, 99% purity), lanthanum as La(NO3)3 6(H2O) (Sigma-Aldrich, St. Louis, MO, 99.99% purity), and magnesium as Mg(NO3)2 6(H2O) (Sigma-Aldrich, St. Louis, MO, 99% purity. Metal solutions (5 mM) were made using nanopure water (≥18 MΩ-cm) and were not pH balanced.
Each metal (Pb^2+, La^3+, and Mg^2+) was evaluated separately with each of the nine glycolipids. […]
as §5
as §4, with “Calculations: The efficiency of metal removal (R) was determined for each of the three treatments: Ra for the active mixing/adsorption treatment, Rf for the glycolipid and filtration treatment, and Rc for the glycolipid and centrifugation treatment. R” for “R”, “steps.” for “steps. The equations for these calculations are shown below:”

[4] = Ion flotation of uranium from Monument Valley groundwater with rhamnolipid collectors; conditions: pH 6.5
Source text: Groundwater Collection and Analysis: The Monument Valley site is in Cane Valley, AZ, which is in northeastern Arizona. Groundwater was collected from monitoring well 662, which is down gradient of the source zone within the boundaries of the uranium groundwater plume. Samples were collected using dedicated bladder pumps and a QED Micropurge Controller. Groundwater was collected into a 50 L LDPE carboy (Thermo Scientific Nalgene) after the groundwater's pH and dissolved oxygen levels from the pump stabilized. The solution was stored as received, on the lab bench at ambient temperature until use.
For cation and anion analysis, groundwater was filtered ([…]) then diluted with 2% trace metals grade nitric acid (Fisher Scientific, Waltham, MA) in metal-free polypropylene 15 mL centrifuge tubes (VWR, Radnor, PA). Cations were analyzed using an Elan DRC-II inductively coupled plasma mass spectrometer (ICP-MS). Anions (F^−1, Cl^−1, Br^−1, NO2^−1, NO3^−1, […], and SO4^−2) were analyzed by using a Thermo Scientific Dionex ICS-6000 high-performance ion chromatography system. Data generated in this geochemical analysis were used to model uranium speciation using Visual MINTEQ 3.1. Only major solution constituents—those greater than 10 μg L^−1 for metals or 5 μmol L^−1 for anions—were included in the experiment, and carbonates were excluded because they are stripped from solution when nitrogen is sparged in the flotation process.
Chemicals: Both biosynthetic and synthetic monorhamnolipid collectors were tested for flotation efficiency. Biosynthetic monorhamnolipid tail lengths ‘m’ and ‘n’ range from 4 to 12 due to natural congener variation. Synthetic monorhamnolipids (Rha-C10-C10, Rha-C12-C12, or Rha-C14-C14) were synthesized with equal length tails where ‘m’=‘n’=6-14. The production and purification of biosynthetic monorhamnolipids (bio-mRL) from Pseudomonas aeruginosa ATCC 9027 has been previously described by Hogan et al., J. Hazard. Mater. 2017, 340, pp. 171-178. This organism exclusively produces monorhamnolipids—rhamnolipids with a single rhamnose sugar in the hydrophilic moiety of the molecule—as a congener mixture with varying hydrophobic tail lengths, in which the rhamnosyl-β-hydroxydecanoyl-β-hydroxydecanoate (C10-C10) dominates at 75-85 wt %. A molecular weight of 504 g mol^−1 (based on the C10-C10 structure) was used to estimate the bio-mRL concentration. Synthetic monorhamnolipids with decyl (Rha-C10-C10), dodecyl (Rha-C12-C12), and tetradecyl (Rha-C14-C14) hydrophobic moieties were prepared for comparative experiment. The molecular weights of the synthetic monorhamnolipids are 504.7, 560.8, and 616.9, respectively. All solutions were made using nanopure water (≥18 MΩ-cm). pH was adjusted with HNO3 and NaOH. […]

[5] = precipitation without further treatment, 5:1 ratio
[6] = precipitation followed by centrifugation, molar ratio not stated / over ratios
[7] = precipitation without further treatment, molar ratio not stated

## CCCCCCCCCCCC(CC(=O)O)OC1O[C@H](CO)[C@H](O)[C@H](O)[C@H]1O (stereo partly drawn) [Gal-C14]
[1]
  Pb^2+ maximum removal: 1.5%
[2]; [5]
  La^3+ removal: 57.9%
[3]; [5]
  Mg^2+ removal: 11.6%

## CCCCCCCC(CC(=O)O)OC1OC[C@@H](O)[C@H](O)[C@H]1O (stereo partly drawn) [Xyl-C10]
[1]; [6]
  Pb^2+ removal: ≤ 30%
[1]
  Pb^2+ maximum removal: approximately 30%
[2]; [6]
  La^3+ removal: ≤ 30%
[3]; [6]
  Mg^2+ removal: ≤ 30%

## CCCCCCCCCCCC(CC(=O)O)OC(=O)CC(CCCCCCCCCCC)OC1OC[C@@H](O)[C@H](O)[C@H]1O (stereo partly drawn) [Xyl-C14-C14]
[1]
  Pb^2+ maximum removal: approximately 30%
[3]; [7]
  Mg^2+ removal: 17.1%

## CCCCCCCCCCCC(CC(=O)O)OC1OC[C@@H](O)[C@H](O)[C@H]1O (stereo partly drawn) [Xyl-C14]
[1]
  Pb^2+ maximum removal: < 7%
[2]; [7]
  La^3+ removal: 42.6%

## CCCCCCCC(CC(=O)O)OC(=O)CC(CCCCCCC)O[C@@H]1OC(C)[C@H](O)C(O)C1O[C@@H]1OC(C)[C@H](O)C(O)C1O (stereo partly drawn) [dirhamnolipid]
[4]
  uranium removal percentage: about 75%

Reference: patent publication US20240182513A1, “SEPARATION OF METAL IONS FROM A SAMPLE USING GLYCOLIPIDS” (ARIZONA BOARD OF REGENTS ON BEHALF OF THE UNIVERSITY OF …, priority 2021, published 2024)
